Legend:
Aromatase = molecular target: T1, Aromatase (Homo sapiens, UniProt P11511); assay: Inhibition of human aromatase assessed as reduction in fluorescence intensity preincubated with NADPH regenerating system for 10 mins followed by substrate addition incubated for 60 mins by fluorescence based microplate reader analysis
T1 sequence (P11511 whole entry): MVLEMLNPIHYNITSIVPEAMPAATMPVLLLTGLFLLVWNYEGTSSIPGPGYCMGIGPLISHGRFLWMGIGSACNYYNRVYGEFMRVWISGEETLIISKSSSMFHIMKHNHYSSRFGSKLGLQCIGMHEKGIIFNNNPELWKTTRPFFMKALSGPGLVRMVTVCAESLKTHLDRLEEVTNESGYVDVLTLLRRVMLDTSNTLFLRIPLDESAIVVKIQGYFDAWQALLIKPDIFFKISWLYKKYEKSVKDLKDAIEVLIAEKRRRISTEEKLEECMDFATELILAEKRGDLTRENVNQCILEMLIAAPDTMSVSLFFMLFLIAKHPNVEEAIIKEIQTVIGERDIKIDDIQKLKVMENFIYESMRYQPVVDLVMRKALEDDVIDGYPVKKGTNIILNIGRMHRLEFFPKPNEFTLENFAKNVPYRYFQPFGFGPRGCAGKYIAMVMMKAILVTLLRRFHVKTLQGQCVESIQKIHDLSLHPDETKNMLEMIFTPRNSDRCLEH

Estrogen receptor = molecular target: T2, Estrogen receptor (Homo sapiens, UniProt P03372); assay: Binding affinity to human ERalpha measured after 2 hrs by fluorescence polarization plate reader
T2 sequence (P03372 whole entry): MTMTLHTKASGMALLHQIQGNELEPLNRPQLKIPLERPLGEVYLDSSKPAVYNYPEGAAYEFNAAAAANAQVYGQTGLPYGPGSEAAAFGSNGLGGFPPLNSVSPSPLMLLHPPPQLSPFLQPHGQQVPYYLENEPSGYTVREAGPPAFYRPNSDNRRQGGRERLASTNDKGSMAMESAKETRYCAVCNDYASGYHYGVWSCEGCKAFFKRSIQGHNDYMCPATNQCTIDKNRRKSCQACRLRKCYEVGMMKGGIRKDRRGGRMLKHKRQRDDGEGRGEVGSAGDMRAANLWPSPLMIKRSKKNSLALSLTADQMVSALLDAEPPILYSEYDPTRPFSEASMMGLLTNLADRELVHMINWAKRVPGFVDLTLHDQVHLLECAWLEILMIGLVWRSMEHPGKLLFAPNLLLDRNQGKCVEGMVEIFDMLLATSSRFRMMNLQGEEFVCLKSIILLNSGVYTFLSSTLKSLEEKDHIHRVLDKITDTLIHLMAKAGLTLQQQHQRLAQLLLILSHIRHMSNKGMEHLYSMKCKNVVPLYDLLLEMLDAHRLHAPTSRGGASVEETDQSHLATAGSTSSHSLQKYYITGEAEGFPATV

MCF7 = assay: Antiproliferative activity against human MCF7 cells assessed as reduction in cell viability after 72 hrs by cell counter method; type: functional, cell-based; conditions: MCF7, 72 h
MCF-10A = assay: Antiproliferative activity against human MCF-10A cells assessed as reduction in cell viability after 72 hrs by cell counter method; type: functional, cell-based

SMILES | IC50 (Aromatase) [µM] | IC50 (Estrogen receptor) [µM] | IC50 (MCF7) [µM] | IC50 (MCF-10A) [µM]
CC(CCc1c[nH]cn1)=C(c1ccc(O)cc1)c1ccc(O)cc1 | 0.063 | 1.74 | 39.8 | 50.4
CC(Cn1ccnc1)=C(c1ccc(O)cc1)c1ccc(O)cc1 | 1 | 4.95 | 37 | 52.5
CC(CCc1cccnc1)=C(c1ccc(O)cc1)c1ccc(O)cc1 | 3.24 | 0.313 | > 100 | > 100
CCC(=C(c1ccc(O)cc1)c1ccc(O)cc1)c1cccnc1 | 1.25 | > 10 | 10 | 17
CC(=C(c1ccc(O)cc1)c1ccc(O)cc1)c1c[nH]cn1 | 0.596 | 0.223 | 58 | > 100
CCC(Cc1cccnc1)=C(c1ccc(O)cc1)c1ccc(O)cc1 | 0.023 | 0.019 | 27.6 | > 100
N#Cc1ccc(C(c2ccc(C#N)cc2)n2cncn2)cc1 [LETROZOLE] | – | > 10 | 4.1 | > 10
CCC(CCc1cccnc1)=C(c1ccc(O)cc1)c1ccc(O)cc1 | 0.9 | 0.033 | 42.1 | 20
CCC(CCc1c[nH]cn1)=C(c1ccc(O)cc1)c1ccc(O)cc1 | 0.052 | 0.197 | 37.1 | > 100
CCC(Cn1ccnc1)=C(c1ccc(O)cc1)c1ccc(O)cc1 | 0.035 | 1.8 | 24.3 | 34.7
CC/C(=C(\c1ccc(O)cc1)c1ccc(OCCNC)cc1)c1ccccc1 [ENDOXIFEN] | > 10 | 0.03 | 0.1 | > 10
CC(=C(c1ccc(O)cc1)c1ccc(O)cc1)c1cccnc1 | > 10 | 0.076 | 5.3 | 41.7
CC(Cc1cccnc1)=C(c1ccc(O)cc1)c1ccc(O)cc1 | 0.861 | 1.77 | 41.2 | 58.7
CCC(=C(c1ccc(O)cc1)c1ccc(O)cc1)c1c[nH]cn1 | 0.952 | 1.07 | 60 | > 100

Source: ChEMBL document CHEMBL5036334, “Balanced dual acting compounds targeting aromatase and estrogen receptor α as an emerging therapeutic opportunity to counteract estrogen responsive breast cancer” (Eur J Med Chem, 2021)
